Legend:
[1] = tested on: A-375; assay: Antiproliferative activity against human A-375 cells assessed as inhibition of cell growth incubated for 48 hrs by MTT assay; format: functional, cell-based; details: A-375, 48 h
[2] = tested on: HT-29; assay: Antiproliferative activity against human HT-29 cells assessed as inhibition of cell growth incubated for 48 hrs by MTT assay; format: functional, cell-based; details: HT-29, 48 h
[3] = tested on: BGC-823; assay: Antiproliferative activity against human BGC-823 cells assessed as inhibition of cell growth incubated for 48 hrs by MTT assay; format: functional, cell-based; details: BGC-823, 48 h
[4] = tested on: SK-OV-3; assay: Antiproliferative activity against human SK-OV-3 cells assessed as inhibition of cell growth incubated for 48 hrs by MTT assay; format: functional, cell-based; details: SK-OV-3, 48 h
[5] = tested on: HepG2; assay: Antiproliferative activity against human HepG2 cells assessed as inhibition of cell growth incubated for 48 hrs by MTT assay; format: functional, cell-based; details: HepG2, 48 h
[6] = tested on: CWR22R; assay: Antiproliferative activity against human 22Rv1 cells assessed as inhibition of cell growth incubated for 48 hrs by MTT assay; format: functional, cell-based; details: 22Rv1, 48 h
[7] = tested on: MCF7; assay: Antiproliferative activity against human MCF7 cells assessed as inhibition of cell growth incubated for 48 hrs by MTT assay; format: functional, cell-based; details: MCF7, 48 h
[8] = tested on: 786-0; assay: Antiproliferative activity against human 786-0 cells assessed as inhibition of cell growth incubated for 48 hrs by MTT assay; format: functional, cell-based; details: 786-0, 48 h
[9] = tested on: HCT-116; assay: Induction of apoptosis in human HCT-116 assessed as early apoptotic cells at 100 uM pretreated with Z-VAD-FMK for 30 mins followed by compound addition and measured after 24 hrs by Annexin V-FITC/PI double staining based flow cytometry (reference value: […]); format: functional
[10] = tested on: HCT-116; assay: Induction of apoptosis in human HCT-116 assessed as necrotic cells at 100 uM pretreated with Z-VAD-FMK for 30 mins followed by compound addition and measured after 24 hrs by Annexin V-FITC/PI double staining based flow cytometry (reference value: 0.84 %); format: functional
[11] = tested on: HCT-116; assay: Induction of apoptosis in human HCT-116 assessed as viable cells at 100 uM pretreated with Z-VAD-FMK for 30 mins followed by compound addition and measured after 24 hrs by Annexin V-FITC/PI double staining based flow cytometry (reference value: 90.8%); format: functional; details: read-out: Activity
[12] = tested on: HCT-116; assay: Induction of apoptosis in human HCT-116 assessed as necrotic cells at 100 uM incubated for 24 hrs Annexin V FITC/PI double staining based flow cytometry (reference value: 0.94 %); format: functional
[13] = tested on: HCT-116; assay: Induction of apoptosis in human HCT-116 assessed as viable cells at 100 uM incubated for 24 hrs Annexin V FITC/PI double staining based flow cytometry (Rvb =90.0%); format: functional; details: read-out: Activity
[14] = tested on: HCT-116; assay: Induction of apoptosis in human HCT-116 assessed as early apoptotic cells at 100 uM incubated for 24 hrs Annexin V FITC/PI double staining based flow cytometry (reference value: 1.07 %); format: functional
[15] = tested on: HCT-116; assay: Induction of apoptosis in human HCT-116 assessed as late apoptotic cells at 100 uM pretreated with Z-VAD-FMK for 30 mins followed by compound addition and measured after 24 hrs by Annexin V-FITC/PI double staining based flow cytometry (reference value: 7.43 %); format: functional
[16] = tested on: HCT-116; assay: Induction of apoptosis in human HCT-116 assessed as late apoptotic cells at 100 uM incubated for 24 hrs Annexin V FITC/PI double staining based flow cytometry (reference value: 8.02 %); format: functional

SMILES | IC50 [1] [µM] | IC50 [2] [µM] | IC50 [3] [µM] | IC50 [4] [µM] | IC50 [5] [µM] | IC50 [6] [µM] | IC50 [7] [µM] | IC50 [8] [µM] | Activity [9] [%] | Activity [10] [%] | viability at 100 µM [11] [%] | Activity [12] [%] | viability at 100 µM [13] [%] | Activity [14] [%] | Activity [15] [%] | Activity [16] [%]
CCN(CC)CCCNCc1cc2c3ccccc3n(Cc3ccccc3)c2c(CNCCCN(CC)CC)n1 | 7.83 | 5.54 | 7.24 | 9.62 | 14.3 | 11.2 | 15.2 | 10.6 |  |  |  |  |  |  |  | 
CCN(CC)CCCNCc1cc2c3ccccc3n(C)c2c(CNCCCN(CC)CC)n1 | > 20 | 8.62 | 16.8 | > 20 | > 20 | 12.6 | > 20 | 14.2 |  |  |  |  |  |  |  | 
CCN(CC)CCCNCc1cc2c([nH]c3ccccc32)c(CNCCCN(CC)CC)n1 | > 20 | 12.7 | > 20 | > 20 | > 20 | 16.1 | > 20 | 14.9 |  |  |  |  |  |  |  | 
O=c1[nH]cc(F)c(=O)[nH]1 [FLUOROURACIL] |  |  |  |  |  |  |  |  | 3.01 | 4.13 | 75.5 | 1.62 | 43.6 | 39.6 | 17.3 | 15.2
CCN(CC)CCCNCc1cc2c3ccccc3n(Cc3ccc(F)cc3)c2c(CNCCCN(CC)CC)n1 | 4.82 | 5.81 | 8.81 | 7.85 | 5.68 | 9.22 | 6.92 | 5.42 |  |  |  |  |  |  |  | 
CCCCn1c2ccccc2c2cc(CNCCCN(CC)CC)nc(CNCCCN(CC)CC)c21 | 15.8 | 8.03 | 11.2 | 15.8 | 15.6 | 8.24 | 10.5 | 9.32 |  |  |  |  |  |  |  | 

Source: ChEMBL document CHEMBL6096670, “Design, synthesis and biological evaluation of novel β-carbolines as antitumor agents via targeting autophagy in colorectal cancer” (Eur J Med Chem, 2025)
